# According to paper PMC7104723 (Cell Research, 2020):
# Values joined by “and” are separate entries in the source; they are usually repeats but may differ in a detail not shown here. Equal values may be shown once.
# Key:
# MERS-CoV PsV = conditions: 72 h
# SARS-CoV S protein = SARS-CoV S protein (Severe acute respiratory syndrome coronavirus, UniProt P59594); assay: cell-based; format: cell-based
# MERS-CoV S protein = MERS-CoV S protein (Middle East respiratory syndrome-related coronavirus, UniProt K9N5Q8); assay: cell-based; format: cell-based
# SARS-CoV PsV = conditions: 72 h
# HCoV-OC43 PsV = conditions: 72 h
# SARS-2-HR1 = SARS-2-HR1 (Severe acute respiratory syndrome coronavirus 2, UniProt P0DTC2); format: binding, SARS-CoV-2
# SARS-CoV-2 S protein = SARS-CoV-2 S protein (Severe acute respiratory syndrome coronavirus 2, UniProt P0DTC2); assay: cell-based; format: cell-based
# HCoV-OC43 = format: in vivo, mice
# HCoV-OC43 S protein = HCoV-OC43 S protein (Human coronavirus OC43, UniProt P36334); assay: cell-based; format: cell-based
# HCoV-OC43 S protein, sequence (P36334 14-1353 limits assumed): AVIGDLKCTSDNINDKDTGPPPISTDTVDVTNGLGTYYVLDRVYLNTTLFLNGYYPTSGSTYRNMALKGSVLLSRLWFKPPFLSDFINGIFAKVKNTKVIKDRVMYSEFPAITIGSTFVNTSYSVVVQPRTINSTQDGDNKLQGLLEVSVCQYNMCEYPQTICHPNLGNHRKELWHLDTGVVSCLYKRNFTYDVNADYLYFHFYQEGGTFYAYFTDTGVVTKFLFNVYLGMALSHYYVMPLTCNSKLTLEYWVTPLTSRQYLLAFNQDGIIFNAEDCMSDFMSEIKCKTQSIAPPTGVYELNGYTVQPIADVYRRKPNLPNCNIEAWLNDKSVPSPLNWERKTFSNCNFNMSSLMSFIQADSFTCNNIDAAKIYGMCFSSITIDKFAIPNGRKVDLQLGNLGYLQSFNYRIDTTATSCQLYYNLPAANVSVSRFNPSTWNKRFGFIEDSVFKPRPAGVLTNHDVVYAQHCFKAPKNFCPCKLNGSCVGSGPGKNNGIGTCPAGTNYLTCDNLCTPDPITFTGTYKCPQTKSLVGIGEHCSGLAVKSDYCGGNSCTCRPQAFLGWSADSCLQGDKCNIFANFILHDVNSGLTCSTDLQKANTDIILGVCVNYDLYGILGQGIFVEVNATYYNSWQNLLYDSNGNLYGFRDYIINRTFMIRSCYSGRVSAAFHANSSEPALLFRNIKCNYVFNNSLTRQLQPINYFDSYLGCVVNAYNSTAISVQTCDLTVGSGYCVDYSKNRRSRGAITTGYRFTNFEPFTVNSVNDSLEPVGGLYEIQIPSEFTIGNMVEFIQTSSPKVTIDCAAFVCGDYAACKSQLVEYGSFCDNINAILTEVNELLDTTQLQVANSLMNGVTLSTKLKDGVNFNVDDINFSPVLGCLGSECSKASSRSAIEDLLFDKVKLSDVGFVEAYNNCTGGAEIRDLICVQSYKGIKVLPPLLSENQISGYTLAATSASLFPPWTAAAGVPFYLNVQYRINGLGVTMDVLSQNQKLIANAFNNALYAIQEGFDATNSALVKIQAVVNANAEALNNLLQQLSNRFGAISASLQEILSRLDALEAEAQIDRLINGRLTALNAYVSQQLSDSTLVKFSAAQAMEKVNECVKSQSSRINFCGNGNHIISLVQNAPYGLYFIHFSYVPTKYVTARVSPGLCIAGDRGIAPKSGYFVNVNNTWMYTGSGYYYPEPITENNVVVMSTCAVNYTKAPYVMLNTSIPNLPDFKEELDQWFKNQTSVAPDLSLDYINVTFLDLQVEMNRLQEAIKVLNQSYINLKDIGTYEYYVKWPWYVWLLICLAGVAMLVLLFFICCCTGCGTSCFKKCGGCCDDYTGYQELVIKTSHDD
# MERS-CoV S protein, sequence (K9N5Q8 18-1353 limits assumed): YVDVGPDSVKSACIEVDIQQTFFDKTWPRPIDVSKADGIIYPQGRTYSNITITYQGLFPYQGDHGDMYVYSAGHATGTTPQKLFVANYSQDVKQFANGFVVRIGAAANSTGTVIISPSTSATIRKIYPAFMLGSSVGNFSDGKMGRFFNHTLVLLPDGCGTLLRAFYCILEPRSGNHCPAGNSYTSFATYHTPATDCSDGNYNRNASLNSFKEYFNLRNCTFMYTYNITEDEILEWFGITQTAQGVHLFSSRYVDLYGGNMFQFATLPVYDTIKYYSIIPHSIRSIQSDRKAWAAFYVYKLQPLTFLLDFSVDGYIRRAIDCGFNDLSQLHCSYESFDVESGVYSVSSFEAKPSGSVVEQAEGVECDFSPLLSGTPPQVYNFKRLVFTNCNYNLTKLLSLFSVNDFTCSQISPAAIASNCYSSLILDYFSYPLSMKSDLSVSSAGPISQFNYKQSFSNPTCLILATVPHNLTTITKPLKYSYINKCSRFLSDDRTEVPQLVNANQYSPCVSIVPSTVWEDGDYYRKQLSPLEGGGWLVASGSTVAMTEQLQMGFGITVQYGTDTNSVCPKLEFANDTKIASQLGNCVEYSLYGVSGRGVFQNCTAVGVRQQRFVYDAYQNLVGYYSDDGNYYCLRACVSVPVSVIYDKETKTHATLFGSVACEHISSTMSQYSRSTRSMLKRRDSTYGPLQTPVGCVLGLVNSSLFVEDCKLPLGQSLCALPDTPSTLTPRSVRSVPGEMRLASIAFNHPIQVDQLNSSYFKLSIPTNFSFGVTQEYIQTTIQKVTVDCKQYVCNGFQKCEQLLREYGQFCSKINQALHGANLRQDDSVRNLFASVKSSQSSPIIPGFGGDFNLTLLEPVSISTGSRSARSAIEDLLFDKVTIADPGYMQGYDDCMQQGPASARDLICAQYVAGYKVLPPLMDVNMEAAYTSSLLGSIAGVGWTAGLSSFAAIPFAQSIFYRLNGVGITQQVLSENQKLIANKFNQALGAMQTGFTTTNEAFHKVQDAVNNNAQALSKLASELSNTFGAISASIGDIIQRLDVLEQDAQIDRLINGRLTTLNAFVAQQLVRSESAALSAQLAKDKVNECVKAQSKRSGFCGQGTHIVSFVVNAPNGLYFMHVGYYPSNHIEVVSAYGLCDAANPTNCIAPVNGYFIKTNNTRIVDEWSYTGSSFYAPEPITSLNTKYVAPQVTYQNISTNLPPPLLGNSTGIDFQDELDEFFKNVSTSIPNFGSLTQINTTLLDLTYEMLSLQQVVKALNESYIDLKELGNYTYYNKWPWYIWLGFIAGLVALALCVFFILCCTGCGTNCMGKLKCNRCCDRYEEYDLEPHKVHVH
smiles,measurement,setting,value
CC[C@H](C)[C@H](NC(=O)[C@H](C)NC(=O)[C@H](CCC(=O)O)NC(=O)[C@H](CCC(=O)O)NC(=O)[C@H](CC(C)C)NC(=O)[C@H](CCCCN)NC(=O)[C@H](CCCCN)NC(=O)[C@H](CCSC)NC(=O)[C@H](CCC(=O)O)NC(=O)[C@H](Cc1ccc(O)cc1)NC(=O)[C@H](CCC(=O)O)NC(=O)[C@H](CC(C)C)NC(=O)[C@H](CC(=O)O)NC(=O)[C@H](CC(C)C)NC(=O)[C@H](Cc1ccccc1)NC(=O)[C@@H](NC(=O)[C@@H](NC(=O)[C@H](CC(N)=O)NC(=O)[C@@H](NC(=O)[C@H](CCC(N)=O)NC(=O)[C@H](CC(=O)O)NC(=O)[C@H](CC(C)C)NC(=O)[C@@H](N)CO)[C@@H](C)CC)C(C)C)[C@@H](C)O)C(=O)N[C@@H](CCCCN)C(=O)N[C@@H](CCCCN)C(=O)N[C@@H](CC(C)C)C(=O)N[C@@H](CCC(=O)O)C(=O)N[C@@H](CCC(=O)O)C(=O)N[C@@H](CO)C(=O)N[C@@H](Cc1ccc(O)cc1)C(=O)N[C@H](C(=O)N[C@@H](CC(=O)O)C(=O)N[C@@H](CC(C)C)C(=O)N[C@@H](CCCCN)C(=O)N[C@@H](CCC(=O)O)C(=O)N[C@@H](CC(C)C)C(=O)NCC(=O)N[C@@H](CO)C(=O)NCC(=O)N[C@@H](CO)C(=O)NCC(=O)NCCOCCOCCOCCOCCC(=O)N[C@@H](CSCC(=O)O[C@H]1CC[C@@]2(C)C(=CC[C@H]3[C@@H]4CC[C@H]([C@H](C)CCCC(C)C)[C@@]4(C)CC[C@@H]32)C1)C(N)=O)[C@@H](C)CC [EK1C4],"Fold more active than EK1, HCoV-NL63 PsV infection",HCoV-NL63 PsV,~99 fold
same,IC50,HCoV-NL63 PsV; 72 h,0.0766 µM
same,IC50,MERS-CoV PsV,0.0111 µM
same,"Fold more potent than EK1, live MERS-CoV infection",live MERS-CoV,190 fold
same,IC50,live MERS-CoV; 72 h,0.0042 µM
same,"Fold more potent than EK1, SARS-CoV-2 PsV infection",SARS-CoV-2 PsV,~150 fold and 149 fold
same,IC50,"SARS-CoV-2 PsV; PsV, 72 h",0.0158 µM
same,"Fold more active than EK1, SARS-CoV S-mediated cell–cell fusion",SARS-CoV S protein,about 94 fold
same,"Fold more potent than EK1, live HCoV-OC43 infection",live HCoV-OC43,62 fold
same,IC50,live HCoV-OC43; 1 h,0.0248 µM
same,"Fold more active than EK1, live SARS-CoV-2 infection",live SARS-CoV-2,67 fold
same,IC50,"live SARS-CoV-2; live, 72 h",0.0365 µM
same,"Fold more potent than EK1, Rs3367 PsV infection",Rs3367 PsV,89 fold
same,IC50,Rs3367 PsV; 72 h,0.0669 µM
same,"Fold more potent than EK1, MERS-S-mediated cell–cell fusion",MERS-CoV S protein,95 fold
same,"Fold more active than EK1, HCoV-229E PsV infection",HCoV-229E PsV,about 319 fold
same,IC50,HCoV-229E PsV; 72 h,0.0124 µM
same,"Fold more potent than EK1, live HCoV-229E infection",live HCoV-229E,42 fold
same,IC50,live HCoV-229E; 1 h,0.102 µM
same,IC50,SARS-CoV PsV,0.0117 µM
same,IC50,HCoV-OC43 PsV,0.0377 µM
same,"Fold more potent than EK1, live HCoV-NL63 infection",live HCoV-NL63,19 fold
same,IC50,live HCoV-NL63; 1 h,0.188 µM
same,"Fold more potent than EK1, WIV1 PsV infection",WIV1 PsV,175 fold
same,IC50,WIV1 PsV; 72 h,0.0308 µM
same,Stability and Tm of complex with SARS-2-HR1 compared with EK1 complex,SARS-2-HR1,higher stability and increased Tm values
same,"Fold more potent than EK1C1, SARS-CoV-2 S-mediated cell–cell fusion",SARS-CoV-2 S protein,43 fold
same,"Viral titer in brain, Post-0.5 group","HCoV-OC43; 0.5 mg/kg intranasal 0.5 h after challenge, day 5, 5 mice, limit of detection lg2.0 TCID50/g",not detected
same,"Brain histopathology, Post-0.5 group","HCoV-OC43; 0.5 mg/kg intranasal 0.5 h after challenge, day 5, one mouse",no apparent histopathological changes
same,"Brain histopathology, Pre-0.5 group","HCoV-OC43; 0.5 mg/kg intranasal 0.5 h before challenge, day 5, one mouse",no apparent histopathological changes
same,"Viral titer in brain, Pre-0.5 group","HCoV-OC43; 0.5 mg/kg intranasal 0.5 h before challenge, day 5 after infection, 5 mice, limit of detection lg2.0 TCID50/g",not detected
same,"Mice with high viral titer detected in brain, Post-2 group","HCoV-OC43; 0.5 mg/kg intranasal 2 h after challenge, day 5, 5 mice, limit of detection lg2.0 TCID50/g",4 out of 5 mice
same,"Viral titer in brain, Pre-2 group","HCoV-OC43; 0.5 mg/kg intranasal 2 h before challenge, day 5, 5 mice, limit of detection lg2.0 TCID50/g",not detected
same,"Brain histopathology, Pre-2 group","HCoV-OC43; 0.5 mg/kg intranasal 2 h before challenge, day 5, one mouse",no apparent histopathological changes
same,"Viral titer in brain, Pre-4 group","HCoV-OC43; 0.5 mg/kg intranasal 4 h before challenge, day 5, 5 mice, limit of detection lg2.0 TCID50/g",not detected
same,"Brain histopathology, Pre-4 group","HCoV-OC43; 0.5 mg/kg intranasal 4 h before challenge, day 5, one mouse",no apparent histopathological changes
same,"Viral titer in brain, Pre-12 group","HCoV-OC43; 0.5 mg/kg intranasal 12 h before challenge, day 5, 5 mice, limit of detection lg2.0 TCID50/g",only moderate level of viral titer was detected in brain tissue in one of the 5 mice
same,"Brain histopathology, Pre-12 group","HCoV-OC43; 0.5 mg/kg intranasal 12 h before challenge, day 5, one mouse",no apparent histopathological changes
same,"Mice with high viral titer detected in brain, Pre-24 group","HCoV-OC43; 0.5 mg/kg intranasal 24 h before challenge, day 5, 5 mice, limit of detection lg2.0 TCID50/g",all 5 mice
same,"Survival rate, Post-0.5 group","HCoV-OC43; newborn mice, intranasal 0.5 mg/kg 0.5 h after HCoV-OC43 infection",100%
same,"Survival rate, Post-2 group","HCoV-OC43; newborn mice, intranasal 0.5 mg/kg 2 h after HCoV-OC43 infection",16.7%
same,"Final survival rate, Pre-0.5 group","HCoV-OC43; newborn mice, single intranasal dose 0.5 mg/kg 0.5 h before HCoV-OC43 challenge (100 TCID50), 14 days",100%
same,"Final survival rate, Pre-2 group","HCoV-OC43; newborn mice, single intranasal dose 0.5 mg/kg 2 h before HCoV-OC43 challenge (100 TCID50), 14 days",100%
same,"Final survival rate, Pre-4 group","HCoV-OC43; newborn mice, single intranasal dose 0.5 mg/kg 4 h before HCoV-OC43 challenge (100 TCID50), 14 days",100%
same,"Final survival rate, Pre-12 group","HCoV-OC43; newborn mice, single intranasal dose 0.5 mg/kg 12 h before HCoV-OC43 challenge (100 TCID50), 14 days",83%
same,"Final survival rate, Pre-24 group","HCoV-OC43; newborn mice, single intranasal dose 0.5 mg/kg 24 h before HCoV-OC43 challenge (100 TCID50), 14 days",0%
same,"Fold more potent than EK1, OC43-S-mediated cell–cell fusion",HCoV-OC43 S protein,101 fold
